Patent EP4640206A1, “NISIN FOR INHIBITING BIOFILMS” (SkyLab AG, priority 2024, dated 2025)

System: S.mutans biofilms
Assay: Follow-up observation of pH of washes of a laboratory model of S. mutans biofilms in 10% sucrose
Assay type: cell-based, Streptococcus mutans
Conditions: for Value of pH decrease within 30 min. of measurement (%): compared to the initial value
Method: Example No. 2. Follow-up observation of pH of washes of a laboratory model of S. mutans biofilms.
Inoculum of S.mutans control strain was prepared from an ampoule. The ampoule with the dried strain was opened sterilely over a drier or a tray. The upper end of the ampoule was heated on a burner flame, and paraffin was removed; then a piece of sterile absorbent cotton moistened in sterile water was carefully touched to the pulled end of the ampoule so that a small crack appeared, and the same wet cotton was passed around the tip of the ampoule. After the crack had formed, the end of the ampoule was removed with a light blow of tweezers. After opening the ampoule, 0.3-0.5 ml of heart-brain broth was sterilely poured in. After dissolution of the dry contents, the ampoule was transferred with a Pasteur pipette into tubes with 2 ml of heart-brain broth and grown at 37°C for 2 hours in a thermostat in 5% CO2 medium. To restore full viability, 1-2 passages on nutrient media appropriate for the microbes of the species were required. 2 Petri dishes with agar containing 5% horse blood were seeded with 0.1 ml of a 2-hour culture on heart-brain broth of the strain. Petri dishes were incubated at 37°C for 18 hours in an incubator containing 5% CO2. Gram stained smears were prepared from the grown colonies to assess the tinctorial, phenotypic properties and homogeneity of bacteria. Species membership was confirmed using MALDI-TOF reference bases.
Aqueous solutions of nisin in concentrations of 0.004 and 0.008% were taken as the working solutions for testing. […] Distilled water was used as a negative control. […] Urea was chosen due to its ability to alkalinize the environment in bacterial biofilms (Jadon et al., 2018). During the assay, a 10% sucrose solution was used, which is known to be readily metabolized by cariogenic bacteria to acid, thus contributing to the overall acidification of the medium.
The contents of the wells were extracted using an aspirator. All 6 wells of the first row were filled with 1 ml of deionized water and left for 5 min. The water was extracted with an aspirator; 1 ml of the test solution was added into the wells; in 1 min the component was removed, the wells were glazed for 1 min with deionized water, then it was removed. 250 µl of 10% sucrose was added to the wells and biofilms were scraped off the well walls with a disposable plastic loop. The resulting suspension was transferred by pipette into three Eppendorf tubes: contents of wells 1 and 2 into Eppendorf tube No. 1, contents of wells 3 and 4 into Eppendorf tube No. 2, contents of wells 5 and 6 into Eppendorf tube No. 3; next, the measurement of pH started immediately. Time points of the measurement are: 0, 1, 2, 3, 4, 5, 6, 7, 8, 9, 10, 15, 20, 30 min. After the test was finished, the electrode was washed and the described procedure was repeated for the next solution under study.

Molecule: NC(N)=O [Urea, reference compound]
- pH of mechanically disrupted S.mutans biofilms (Urea 0.5%, 10% sucrose, 0 min): 6.33±0.03
- pH of mechanically disrupted S.mutans biofilms (Urea 0.5%, 10% sucrose, 1 min): 6.32±0.006
- pH change (in brackets), S.mutans biofilms (Urea 0.5%, 10% sucrose, 1 min vs previous time point): -0.01
- pH of mechanically disrupted S.mutans biofilms (Urea 0.5%, 10% sucrose, 2 min): 6.22±0.01
- pH change (in brackets), S.mutans biofilms (Urea 0.5%, 10% sucrose, 2 min vs previous time point): -0.1
- pH of mechanically disrupted S.mutans biofilms (Urea 0.5%, 10% sucrose, 3 min): 6.15±0.006
- pH change (in brackets), S.mutans biofilms (Urea 0.5%, 10% sucrose, 3 min vs previous time point): -0.07
- pH of mechanically disrupted S.mutans biofilms (Urea 0.5%, 10% sucrose, 4 min): 6.09±0.006
- pH change (in brackets), S.mutans biofilms (Urea 0.5%, 10% sucrose, 4 min vs previous time point): -0.06
- pH of mechanically disrupted S.mutans biofilms (Urea 0.5%, 10% sucrose, 5 min): 6.06±0
- pH change (in brackets), S.mutans biofilms (Urea 0.5%, 10% sucrose, 5 min vs previous time point): -0.03
- pH of mechanically disrupted S.mutans biofilms (Urea 0.5%, 10% sucrose, 6 min): 6.04±0
- pH change (in brackets), S.mutans biofilms (Urea 0.5%, 10% sucrose, 6 min vs previous time point): -0.02
- pH of mechanically disrupted S.mutans biofilms (Urea 0.5%, 10% sucrose, 7 min): 6.02±0.006
- pH change (in brackets), S.mutans biofilms (Urea 0.5%, 10% sucrose, 7 min vs previous time point): -0.02
- pH of mechanically disrupted S.mutans biofilms (Urea 0.5%, 10% sucrose, 8 min): 6.0±0.01
- pH change (in brackets), S.mutans biofilms (Urea 0.5%, 10% sucrose, 8 min vs previous time point): -0.02
- pH of mechanically disrupted S.mutans biofilms (Urea 0.5%, 10% sucrose, 9 min): 5.93±0.02
- pH change (in brackets), S.mutans biofilms (Urea 0.5%, 10% sucrose, 9 min vs previous time point): -0.07
- pH of mechanically disrupted S.mutans biofilms (Urea 0.5%, 10% sucrose, 10 min): 5.83±0.02
- pH change (in brackets), S.mutans biofilms (Urea 0.5%, 10% sucrose, 10 min vs previous time point): -0.1
- pH of mechanically disrupted S.mutans biofilms (Urea 0.5%, 10% sucrose, 15 min): 5.74±0.02
- pH change (in brackets), S.mutans biofilms (Urea 0.5%, 10% sucrose, 15 min vs previous time point): -0.09
- pH of mechanically disrupted S.mutans biofilms (Urea 0.5%, 10% sucrose, 20 min): 5.46±0.02
- pH change (in brackets), S.mutans biofilms (Urea 0.5%, 10% sucrose, 20 min vs previous time point): -0.28
- pH of mechanically disrupted S.mutans biofilms (Urea 0.5%, 10% sucrose, 30 min): 5.24±0.006
- pH change (in brackets), S.mutans biofilms (Urea 0.5%, 10% sucrose, 30 min vs previous time point): -0.22
- Value of pH decrease within 30 min. of measurement (%) (Urea 0.5%, 10% sucrose): -17.22%
- ability to stabilize pH in monospecies cariogenic biofilms (Urea in concentration of 0.5%, compared to the negative control): no ability to stabilize pH

Molecule: Nisin
- pH of mechanically disrupted S.mutans biofilms (Nisin 0.004%, 10% sucrose, 0 min): 6.09±0.006
- pH of mechanically disrupted S.mutans biofilms (Nisin 0.004%, 10% sucrose, 1 min): 6.08±0.006
- pH change (in brackets), S.mutans biofilms (Nisin 0.004%, 10% sucrose, 1 min vs previous time point): -0.01
- pH of mechanically disrupted S.mutans biofilms (Nisin 0.004%, 10% sucrose, 2 min): 6.07±0.006
- pH change (in brackets), S.mutans biofilms (Nisin 0.004%, 10% sucrose, 2 min vs previous time point): -0.01
- pH of mechanically disrupted S.mutans biofilms (Nisin 0.004%, 10% sucrose, 3 min): 6.05±0.006
- pH change (in brackets), S.mutans biofilms (Nisin 0.004%, 10% sucrose, 3 min vs previous time point): -0.02
- pH of mechanically disrupted S.mutans biofilms (Nisin 0.004%, 10% sucrose, 4 min): 6.05±0
- pH change (in brackets), S.mutans biofilms (Nisin 0.004%, 10% sucrose, 4 min vs previous time point): 0
- pH of mechanically disrupted S.mutans biofilms (Nisin 0.004%, 10% sucrose, 5 min): 6.04±0.006
- pH change (in brackets), S.mutans biofilms (Nisin 0.004%, 10% sucrose, 5 min vs previous time point): -0.01
- pH of mechanically disrupted S.mutans biofilms (Nisin 0.004%, 10% sucrose, 6 min): 6.05±0.006
- pH change (in brackets), S.mutans biofilms (Nisin 0.004%, 10% sucrose, 6 min vs previous time point): +0.01
- pH of mechanically disrupted S.mutans biofilms (Nisin 0.004%, 10% sucrose, 7 min): 6.05±0.006
- pH change (in brackets), S.mutans biofilms (Nisin 0.004%, 10% sucrose, 7 min vs previous time point): 0
- pH of mechanically disrupted S.mutans biofilms (Nisin 0.004%, 10% sucrose, 8 min): 6.05±0
- pH change (in brackets), S.mutans biofilms (Nisin 0.004%, 10% sucrose, 8 min vs previous time point): 0
- pH of mechanically disrupted S.mutans biofilms (Nisin 0.004%, 10% sucrose, 9 min): 6.05±0
- pH change (in brackets), S.mutans biofilms (Nisin 0.004%, 10% sucrose, 9 min vs previous time point): 0
- pH of mechanically disrupted S.mutans biofilms (Nisin 0.004%, 10% sucrose, 10 min): 6.06±0.006
- pH change (in brackets), S.mutans biofilms (Nisin 0.004%, 10% sucrose, 10 min vs previous time point): +0.01
- pH of mechanically disrupted S.mutans biofilms (Nisin 0.004%, 10% sucrose, 15 min): 6.05±0.006
- pH change (in brackets), S.mutans biofilms (Nisin 0.004%, 10% sucrose, 15 min vs previous time point): -0.01
- pH of mechanically disrupted S.mutans biofilms (Nisin 0.004%, 10% sucrose, 20 min): 6.04±0.006
- pH change (in brackets), S.mutans biofilms (Nisin 0.004%, 10% sucrose, 20 min vs previous time point): -0.01
- pH of mechanically disrupted S.mutans biofilms (Nisin 0.004%, 10% sucrose, 30 min): 6.0±0
- pH change (in brackets), S.mutans biofilms (Nisin 0.004%, 10% sucrose, 30 min vs previous time point): -0.04
- Value of pH decrease within 30 min. of measurement (%) (Nisin 0.004%, 10% sucrose): -1.47%
- Value of pH decrease within 30 min. of measurement (%) (Nisin 0.008%, 10% sucrose): -3.15%
- pH of mechanically disrupted S.mutans biofilms (Nisin 0,008%, 10% sucrose, 0 min): 6.33±0
- pH of mechanically disrupted S.mutans biofilms (Nisin 0,008%, 10% sucrose, 1 min): 6.32±0.006
- pH change (in brackets), S.mutans biofilms (Nisin 0,008%, 10% sucrose, 1 min vs previous time point): -0.01
- pH of mechanically disrupted S.mutans biofilms (Nisin 0,008%, 10% sucrose, 2 min): 6.31±0.006
- pH change (in brackets), S.mutans biofilms (Nisin 0,008%, 10% sucrose, 2 min vs previous time point): -0.01
- pH of mechanically disrupted S.mutans biofilms (Nisin 0,008%, 10% sucrose, 3 min): 6.28±0.01
- pH change (in brackets), S.mutans biofilms (Nisin 0,008%, 10% sucrose, 3 min vs previous time point): -0.03
- pH of mechanically disrupted S.mutans biofilms (Nisin 0,008%, 10% sucrose, 4 min): 6.24±0.006
- pH change (in brackets), S.mutans biofilms (Nisin 0,008%, 10% sucrose, 4 min vs previous time point): -0.04
- pH of mechanically disrupted S.mutans biofilms (Nisin 0,008%, 10% sucrose, 5 min): 6.21±0.006
- pH change (in brackets), S.mutans biofilms (Nisin 0,008%, 10% sucrose, 5 min vs previous time point): -0.03
- pH of mechanically disrupted S.mutans biofilms (Nisin 0,008%, 10% sucrose, 6 min): 6.21±0
- pH change (in brackets), S.mutans biofilms (Nisin 0,008%, 10% sucrose, 6 min vs previous time point): -0.03
- pH of mechanically disrupted S.mutans biofilms (Nisin 0,008%, 10% sucrose, 7 min): 6.23±0
- pH change (in brackets), S.mutans biofilms (Nisin 0,008%, 10% sucrose, 7 min vs previous time point): +0.02
- pH of mechanically disrupted S.mutans biofilms (Nisin 0,008%, 10% sucrose, 8 min): 6.23±0
- pH change (in brackets), S.mutans biofilms (Nisin 0,008%, 10% sucrose, 8 min vs previous time point): 0
- pH of mechanically disrupted S.mutans biofilms (Nisin 0,008%, 10% sucrose, 9 min): 6.21±0
- pH change (in brackets), S.mutans biofilms (Nisin 0,008%, 10% sucrose, 9 min vs previous time point): -0.02
- pH of mechanically disrupted S.mutans biofilms (Nisin 0,008%, 10% sucrose, 10 min): 6.2±0.006
- pH change (in brackets), S.mutans biofilms (Nisin 0,008%, 10% sucrose, 10 min vs previous time point): -0.01
- pH of mechanically disrupted S.mutans biofilms (Nisin 0,008%, 10% sucrose, 15 min): 6.18±0
- pH change (in brackets), S.mutans biofilms (Nisin 0,008%, 10% sucrose, 15 min vs previous time point): -0.02
- pH of mechanically disrupted S.mutans biofilms (Nisin 0,008%, 10% sucrose, 20 min): 6.17±0.006
- pH change (in brackets), S.mutans biofilms (Nisin 0,008%, 10% sucrose, 20 min vs previous time point): -0.01
- pH of mechanically disrupted S.mutans biofilms (Nisin 0,008%, 10% sucrose, 30 min): 6.13±0.006
- pH change (in brackets), S.mutans biofilms (Nisin 0,008%, 10% sucrose, 30 min vs previous time point): -0.04
- effect on the pH of cariogenic biofilm affected by sucrose (nisin 0.004-0.008%, 10% sucrose): stabilizing effect
